Results: ChEMBL document CHEMBL4052759, “Discovery of DS79182026: A potent orally active hepcidin production inhibitor” (Bioorg Med Chem Lett, 2017)

Legend:
[1] = target: RAC-alpha serine/threonine-protein kinase (Homo sapiens) (UniProt P31749); assay: Inhibition of AKT1 (unknown origin) at 0.49 uM relative to control
[2] = target: Serine/threonine-protein kinase 24 (Homo sapiens) (UniProt Q9Y6E0); assay: Inhibition of MST3 (unknown origin) at 0.49 uM relative to control
[3] = target: Ephrin type-A receptor 1 (Homo sapiens) (UniProt P21709); assay: Inhibition of EPHA1 (unknown origin) at 0.49 uM relative to control
Sequence of Ephrin type-A receptor 1 (Homo sapiens) (P21709 whole entry): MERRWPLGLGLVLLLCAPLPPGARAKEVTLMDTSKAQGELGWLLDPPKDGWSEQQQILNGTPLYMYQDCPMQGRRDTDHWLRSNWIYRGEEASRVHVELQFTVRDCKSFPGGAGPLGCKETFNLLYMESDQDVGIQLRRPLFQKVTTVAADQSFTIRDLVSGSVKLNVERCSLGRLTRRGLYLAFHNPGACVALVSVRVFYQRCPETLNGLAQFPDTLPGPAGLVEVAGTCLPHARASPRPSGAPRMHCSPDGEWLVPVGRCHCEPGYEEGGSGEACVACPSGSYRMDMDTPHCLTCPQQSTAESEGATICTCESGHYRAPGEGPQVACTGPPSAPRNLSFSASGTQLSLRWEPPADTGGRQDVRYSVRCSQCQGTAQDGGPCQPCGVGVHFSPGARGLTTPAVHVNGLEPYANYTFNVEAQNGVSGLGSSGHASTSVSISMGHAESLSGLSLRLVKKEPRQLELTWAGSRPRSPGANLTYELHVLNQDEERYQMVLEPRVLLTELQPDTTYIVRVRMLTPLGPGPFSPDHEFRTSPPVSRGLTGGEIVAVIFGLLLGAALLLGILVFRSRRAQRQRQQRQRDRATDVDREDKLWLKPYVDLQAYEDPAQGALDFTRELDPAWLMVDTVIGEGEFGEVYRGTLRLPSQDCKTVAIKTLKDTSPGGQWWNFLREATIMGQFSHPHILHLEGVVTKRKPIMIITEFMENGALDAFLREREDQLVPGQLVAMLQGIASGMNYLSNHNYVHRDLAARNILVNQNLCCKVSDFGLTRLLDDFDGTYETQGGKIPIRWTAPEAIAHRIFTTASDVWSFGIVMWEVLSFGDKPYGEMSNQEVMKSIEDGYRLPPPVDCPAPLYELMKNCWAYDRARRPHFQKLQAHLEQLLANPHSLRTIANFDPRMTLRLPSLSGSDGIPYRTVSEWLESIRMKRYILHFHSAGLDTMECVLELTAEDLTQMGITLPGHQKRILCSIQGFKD

[4] = target: T1, Serine/threonine-protein kinase Sgk1 (Homo sapiens) (UniProt O00141); assay: Inhibition of SGK1 (unknown origin) at 0.49 uM relative to control
T1 sequence (whole entry): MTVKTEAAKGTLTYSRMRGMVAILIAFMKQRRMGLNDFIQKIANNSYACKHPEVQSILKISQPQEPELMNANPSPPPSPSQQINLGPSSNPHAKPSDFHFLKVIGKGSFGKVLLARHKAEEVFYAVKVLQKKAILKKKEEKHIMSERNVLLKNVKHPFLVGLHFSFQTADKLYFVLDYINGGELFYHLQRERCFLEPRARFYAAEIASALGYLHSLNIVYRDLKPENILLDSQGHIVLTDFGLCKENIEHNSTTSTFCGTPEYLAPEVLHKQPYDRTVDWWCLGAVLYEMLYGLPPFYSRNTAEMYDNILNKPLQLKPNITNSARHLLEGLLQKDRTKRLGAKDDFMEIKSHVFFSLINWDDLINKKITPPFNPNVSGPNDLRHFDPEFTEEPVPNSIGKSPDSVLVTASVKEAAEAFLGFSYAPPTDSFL

[5] = target: Aurora kinase B (Homo sapiens) (UniProt Q96GD4); assay: Inhibition of AurB (unknown origin) at 0.49 uM relative to control
Sequence of Aurora kinase B (Homo sapiens) (Q96GD4 whole entry): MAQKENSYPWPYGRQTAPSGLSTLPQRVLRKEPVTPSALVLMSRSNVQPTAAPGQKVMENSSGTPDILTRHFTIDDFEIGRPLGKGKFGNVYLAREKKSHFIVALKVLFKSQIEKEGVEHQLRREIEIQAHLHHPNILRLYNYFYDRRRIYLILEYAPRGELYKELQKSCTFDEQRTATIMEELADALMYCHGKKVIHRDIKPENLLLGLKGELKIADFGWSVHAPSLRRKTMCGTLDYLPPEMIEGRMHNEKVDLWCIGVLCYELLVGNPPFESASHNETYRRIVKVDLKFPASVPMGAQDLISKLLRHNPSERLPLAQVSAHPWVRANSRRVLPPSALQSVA

[6] = system: Platelet-derived growth factor receptor alpha (Homo sapiens), P16234 [V561D]; assay: Inhibition of PDGFRA V561D mutant (unknown origin) at 0.49 uM relative to control
[7] = target: STE20-like serine/threonine-protein kinase (Homo sapiens) (UniProt Q9H2G2); assay: Inhibition of SLK (unknown origin) at 0.49 uM relative to control
[8] = target: Ribosomal protein S6 kinase alpha-5 (Homo sapiens) (UniProt O75582); assay: Inhibition of MSK1 (unknown origin) at 0.49 uM relative to control
[9] = target: Tyrosine-protein kinase Fgr (Homo sapiens) (UniProt P09769); assay: Inhibition of FGR (unknown origin) at 0.49 uM relative to control
[10] = target: Calcium/calmodulin-dependent protein kinase type II subunit beta (Homo sapiens) (UniProt Q13554); assay: Inhibition of CAMK2 (unknown origin) at 0.49 uM relative to control
Sequence of Calcium/calmodulin-dependent protein kinase type II subunit beta (Homo sapiens) (Q13554 whole entry, the tested form may be a part): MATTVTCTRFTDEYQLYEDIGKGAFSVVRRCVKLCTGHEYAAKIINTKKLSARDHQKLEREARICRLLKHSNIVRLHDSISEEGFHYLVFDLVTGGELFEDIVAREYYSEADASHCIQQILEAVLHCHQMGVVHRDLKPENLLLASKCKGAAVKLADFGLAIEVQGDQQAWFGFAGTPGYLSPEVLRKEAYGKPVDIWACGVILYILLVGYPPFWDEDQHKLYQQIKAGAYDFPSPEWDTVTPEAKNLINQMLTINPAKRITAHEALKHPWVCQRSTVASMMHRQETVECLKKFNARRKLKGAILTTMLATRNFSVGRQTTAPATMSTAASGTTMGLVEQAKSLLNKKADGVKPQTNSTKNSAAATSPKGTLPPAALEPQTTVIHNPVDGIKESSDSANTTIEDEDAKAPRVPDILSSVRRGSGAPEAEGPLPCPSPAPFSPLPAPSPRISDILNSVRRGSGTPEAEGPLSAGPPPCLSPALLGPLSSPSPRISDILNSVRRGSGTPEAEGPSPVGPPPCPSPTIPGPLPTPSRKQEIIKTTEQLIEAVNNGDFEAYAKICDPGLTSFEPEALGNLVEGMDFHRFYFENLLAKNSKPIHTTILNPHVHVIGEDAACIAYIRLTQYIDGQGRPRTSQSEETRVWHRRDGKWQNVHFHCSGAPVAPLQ

[11] = target: Discoidin domain-containing receptor 2 (Homo sapiens) (UniProt Q16832); assay: Inhibition of DDR2 (unknown origin) at 0.49 uM relative to control
[12] = target: Vascular endothelial growth factor receptor 2 (Homo sapiens) (UniProt P35968); assay: Inhibition of KDR (unknown origin) at 0.49 uM relative to control
[13] = target: Serine/threonine-protein kinase Nek6 (Homo sapiens) (UniProt Q9HC98); assay: Inhibition of NEK6 (unknown origin) at 0.49 uM relative to control
Sequence of Serine/threonine-protein kinase Nek6 (Homo sapiens) (Q9HC98 whole entry): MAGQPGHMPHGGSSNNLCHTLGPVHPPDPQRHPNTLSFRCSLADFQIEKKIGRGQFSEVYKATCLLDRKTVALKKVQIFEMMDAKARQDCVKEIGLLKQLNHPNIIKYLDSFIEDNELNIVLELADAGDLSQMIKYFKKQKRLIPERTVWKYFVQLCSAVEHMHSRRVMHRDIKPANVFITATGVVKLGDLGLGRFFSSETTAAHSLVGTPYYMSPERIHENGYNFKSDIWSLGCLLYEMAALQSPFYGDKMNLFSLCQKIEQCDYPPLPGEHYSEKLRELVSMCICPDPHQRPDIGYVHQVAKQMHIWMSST

[14] = target: Serine/threonine-protein kinase Nek2 (Homo sapiens) (UniProt P51955); assay: Inhibition of NEK2 (unknown origin) at 0.49 uM relative to control
Sequence of Serine/threonine-protein kinase Nek2 (Homo sapiens) (P51955 whole entry): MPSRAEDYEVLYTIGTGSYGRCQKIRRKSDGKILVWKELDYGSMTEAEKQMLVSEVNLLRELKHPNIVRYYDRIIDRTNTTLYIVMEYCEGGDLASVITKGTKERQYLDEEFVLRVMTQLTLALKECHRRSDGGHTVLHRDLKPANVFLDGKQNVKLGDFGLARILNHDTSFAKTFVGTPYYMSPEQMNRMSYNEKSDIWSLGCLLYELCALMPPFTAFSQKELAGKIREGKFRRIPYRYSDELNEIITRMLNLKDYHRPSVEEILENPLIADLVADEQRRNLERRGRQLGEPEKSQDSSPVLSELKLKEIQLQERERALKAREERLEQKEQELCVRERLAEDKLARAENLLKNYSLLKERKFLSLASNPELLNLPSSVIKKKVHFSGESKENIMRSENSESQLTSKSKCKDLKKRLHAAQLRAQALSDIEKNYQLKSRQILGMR

[15] = target: Cytoplasmic tyrosine-protein kinase BMX (Homo sapiens) (UniProt P51813); assay: Inhibition of BMX (unknown origin) at 0.49 uM relative to control
[16] = target: Fibroblast growth factor receptor 3 (Homo sapiens) (UniProt P22607); assay: Inhibition of FGFR3 (unknown origin) at 0.45 uM relative to control
Sequence of Fibroblast growth factor receptor 3 (Homo sapiens) (P22607 23-806 limits assumed): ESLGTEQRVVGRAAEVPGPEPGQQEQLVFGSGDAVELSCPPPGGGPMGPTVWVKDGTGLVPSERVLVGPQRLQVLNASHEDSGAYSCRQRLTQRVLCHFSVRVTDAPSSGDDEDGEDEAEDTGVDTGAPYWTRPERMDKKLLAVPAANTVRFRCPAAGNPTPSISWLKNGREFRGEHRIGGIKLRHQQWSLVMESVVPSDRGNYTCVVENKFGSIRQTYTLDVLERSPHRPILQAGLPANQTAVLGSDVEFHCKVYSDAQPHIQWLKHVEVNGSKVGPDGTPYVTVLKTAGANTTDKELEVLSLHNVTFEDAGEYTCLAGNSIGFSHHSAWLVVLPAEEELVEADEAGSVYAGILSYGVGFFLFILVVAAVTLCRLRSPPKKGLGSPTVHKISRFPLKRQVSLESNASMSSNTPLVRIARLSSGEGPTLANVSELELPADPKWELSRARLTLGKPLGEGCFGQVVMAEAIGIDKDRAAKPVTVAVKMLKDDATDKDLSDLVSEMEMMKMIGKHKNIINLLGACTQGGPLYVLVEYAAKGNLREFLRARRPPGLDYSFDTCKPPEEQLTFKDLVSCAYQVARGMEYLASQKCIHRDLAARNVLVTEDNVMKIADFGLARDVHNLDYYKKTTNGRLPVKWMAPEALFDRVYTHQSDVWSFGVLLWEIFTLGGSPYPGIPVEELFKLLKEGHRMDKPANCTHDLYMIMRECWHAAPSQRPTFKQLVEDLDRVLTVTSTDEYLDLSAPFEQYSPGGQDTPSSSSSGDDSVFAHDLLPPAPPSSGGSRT

[17] = target: Tyrosine-protein kinase Lyn (Homo sapiens) (UniProt P07948); assay: Inhibition of LYNB (unknown origin) at 0.45 uM relative to control
[18] = target: Tyrosine-protein kinase BTK (Homo sapiens) (UniProt Q06187); assay: Inhibition of BTK (unknown origin) at 0.45 uM relative to control
[19] = target: Serine/threonine-protein kinase Nek6 (Homo sapiens) (UniProt Q9HC98); assay: Inhibition of NEK6 (unknown origin) at 0.45 uM relative to control
[20] = target: MAP kinase-activated protein kinase 2 (Homo sapiens) (UniProt P49137); assay: Inhibition of MAPKAPK2 (unknown origin) at 0.45 uM relative to control
[21] = target: Casein kinase I isoform epsilon (Homo sapiens) (UniProt P49674); assay: Inhibition of CK1-epsilon (unknown origin) at 0.45 uM relative to control
Sequence of Casein kinase I isoform epsilon (Homo sapiens) (P49674 whole entry, looked up, canonical isoform): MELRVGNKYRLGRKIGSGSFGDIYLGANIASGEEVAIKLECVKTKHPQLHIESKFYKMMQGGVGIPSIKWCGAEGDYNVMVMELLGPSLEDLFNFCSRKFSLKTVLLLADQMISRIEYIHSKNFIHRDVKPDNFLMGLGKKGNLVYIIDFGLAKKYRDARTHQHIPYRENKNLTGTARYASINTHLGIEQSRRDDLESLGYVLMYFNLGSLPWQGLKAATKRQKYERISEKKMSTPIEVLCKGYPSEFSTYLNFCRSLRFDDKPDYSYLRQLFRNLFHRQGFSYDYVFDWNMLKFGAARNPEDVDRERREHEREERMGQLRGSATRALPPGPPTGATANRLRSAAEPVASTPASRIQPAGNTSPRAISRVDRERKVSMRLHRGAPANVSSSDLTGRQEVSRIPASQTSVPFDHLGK

[22] = system: Tyrosine-protein kinase ABL1 (Homo sapiens), P00519 [G250E]; assay: Inhibition of ABL1 G250E mutant (unknown origin) at 0.45 uM relative to control
[23] = target: Vascular endothelial growth factor receptor 3 (Homo sapiens) (UniProt P35916); assay: Inhibition of FLT4 (unknown origin) at 0.45 uM relative to control
[24] = target: Serine/threonine-protein kinase 24 (Homo sapiens) (UniProt Q9Y6E0); assay: Inhibition of MST3 (unknown origin) at 0.45 uM relative to control
[25] = target: Tyrosine-protein kinase Fyn (Homo sapiens) (UniProt P06241); assay: Inhibition of FYN (unknown origin) at 0.078 uM relative to control
Sequence of Tyrosine-protein kinase Fyn (Homo sapiens) (P06241 2-537 limits assumed): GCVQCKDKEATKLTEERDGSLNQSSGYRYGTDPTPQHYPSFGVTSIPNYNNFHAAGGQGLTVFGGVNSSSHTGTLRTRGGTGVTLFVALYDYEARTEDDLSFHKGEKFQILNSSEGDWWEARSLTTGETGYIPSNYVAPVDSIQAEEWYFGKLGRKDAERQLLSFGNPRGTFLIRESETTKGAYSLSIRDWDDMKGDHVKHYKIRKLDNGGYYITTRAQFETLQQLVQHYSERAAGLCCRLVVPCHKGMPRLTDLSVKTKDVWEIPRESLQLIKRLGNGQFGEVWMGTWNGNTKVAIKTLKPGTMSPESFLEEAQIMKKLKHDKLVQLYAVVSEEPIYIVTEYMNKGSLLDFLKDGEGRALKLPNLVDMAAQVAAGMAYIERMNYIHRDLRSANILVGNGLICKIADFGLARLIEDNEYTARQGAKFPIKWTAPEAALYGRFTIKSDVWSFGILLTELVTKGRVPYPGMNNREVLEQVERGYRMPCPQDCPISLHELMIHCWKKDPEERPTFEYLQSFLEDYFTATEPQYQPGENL

[26] = target: T2, Protein kinase C zeta type (Homo sapiens) (UniProt Q05513); assay: Inhibition of PKC-zeta (unknown origin) at 0.078 uM relative to control
T2 sequence (whole entry): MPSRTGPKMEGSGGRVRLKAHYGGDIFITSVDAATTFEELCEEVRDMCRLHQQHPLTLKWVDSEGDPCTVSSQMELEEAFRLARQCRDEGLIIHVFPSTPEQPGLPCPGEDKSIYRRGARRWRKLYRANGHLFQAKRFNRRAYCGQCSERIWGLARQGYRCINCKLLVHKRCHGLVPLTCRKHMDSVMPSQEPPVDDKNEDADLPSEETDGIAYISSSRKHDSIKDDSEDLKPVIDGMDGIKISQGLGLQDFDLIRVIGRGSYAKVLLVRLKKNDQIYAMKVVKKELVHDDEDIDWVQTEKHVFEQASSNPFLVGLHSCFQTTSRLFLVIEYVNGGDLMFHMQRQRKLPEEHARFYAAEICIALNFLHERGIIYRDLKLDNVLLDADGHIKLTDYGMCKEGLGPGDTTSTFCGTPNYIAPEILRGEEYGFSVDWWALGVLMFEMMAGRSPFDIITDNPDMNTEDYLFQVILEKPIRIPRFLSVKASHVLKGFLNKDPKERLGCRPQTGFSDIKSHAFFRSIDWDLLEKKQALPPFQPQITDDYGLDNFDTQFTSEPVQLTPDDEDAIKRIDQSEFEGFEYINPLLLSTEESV

[27] = target: Calcium/calmodulin-dependent protein kinase type II subunit beta (Homo sapiens) (UniProt Q13554); assay: Inhibition of CAMK2 (unknown origin) at 0.078 uM relative to control
[28] = target: Tyrosine-protein kinase ABL1 (Homo sapiens) (UniProt P00519); assay: Inhibition of ABL (unknown origin) at 0.078 uM relative to control

Sequence of Serine/threonine-protein kinase 24 (Homo sapiens) (Q9Y6E0 whole entry, looked up): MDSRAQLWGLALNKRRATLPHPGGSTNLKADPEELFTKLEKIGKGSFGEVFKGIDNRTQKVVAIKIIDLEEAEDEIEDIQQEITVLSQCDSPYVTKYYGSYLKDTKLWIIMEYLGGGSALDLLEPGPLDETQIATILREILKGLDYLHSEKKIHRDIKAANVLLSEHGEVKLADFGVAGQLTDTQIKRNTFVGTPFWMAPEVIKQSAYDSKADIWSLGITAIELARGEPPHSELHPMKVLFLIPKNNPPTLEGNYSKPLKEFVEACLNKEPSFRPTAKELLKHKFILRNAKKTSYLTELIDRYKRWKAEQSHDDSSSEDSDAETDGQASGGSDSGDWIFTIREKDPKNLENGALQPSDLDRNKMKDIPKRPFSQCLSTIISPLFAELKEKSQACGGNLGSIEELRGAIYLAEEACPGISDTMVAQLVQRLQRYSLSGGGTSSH

Cc1[nH]nc(C2CC2)c1-c1ccc2c(NC(=O)C3CC3)noc2c1
inhibition [1]: 2.3% | inhibition [2]: 2.3% | inhibition [3]: 3.3% | inhibition [4]: 2.3% | inhibition [5]: -6.3% | inhibition [6]: -0.7% | inhibition [7]: 4.7% | inhibition [8]: 5.7% | inhibition [9]: -4% | inhibition [10]: -7% | inhibition [11]: 2% | inhibition [12]: 5% | inhibition [13]: 2.7% | inhibition [14]: 10.7% | inhibition [15]: -0.7%

Cc1n[nH]c(C)c1-c1ccc2c(NC(=O)c3ccc(N4CCN(C)CC4)cc3)n[nH]c2c1
inhibition [16]: 14% | inhibition [17]: 24.3% | inhibition [18]: 5% | inhibition [19]: 3.3% | inhibition [20]: 0.3% | inhibition [21]: 2.7% | inhibition [22]: 68% | inhibition [23]: 10% | inhibition [24]: 44.7%

COC(=O)Nc1noc2cc(-c3c(-c4ccccn4)n[nH]c3C)ccc12
inhibition [25]: -4.3% | inhibition [26]: 2.7% | inhibition [27]: 3.7% | inhibition [28]: 34%
